Measured values taken from US9487813B2, “Antifungal target” (F2G LTD, priority 2009, dated 2016).

Legend:
[1] = biological target: recombinant PPTB (Aspergillus fumigatus, UniProt Q4W9R0); details: in the presence of magnesium ions and CoA-Bodipy TMR
Description: In the present work PPTB assays used a fluorescently-labelled coenzyme A molecule (CoA-Bodipy TMR), such that PPTB activity transferred the label onto the ACP. The PPTB reaction could therefore be followed by separating the products of the PPTB reaction on an SDS-PAGE gel and illuminating with UV light to see whether the ACP band had become fluorescent. For the high-throughput screen, the PPTB assays used a fluorescence polarisation approach. This measures changes in the orientation of plane-polarized light brought about by fluorophores that undergo significant molecular motion during their fluorescence lifetime. […] The reduction in rotation causes a reduction in the ability of the Bodipy TMR molecule to depolarise plane-polarised light, which can be measured.
Further experiments were carried out using fluorescence polarization to optimise the PPTB assay for high-throughput screening.

[2] = biological target: T1, A. fumigatus PPTB (Aspergillus fumigatus, UniProt Q4W9R0); experiment: fluorescence polarisation PPTB assay / high-throughput screen (CoA-Bodipy TMR transfer to ACP); assay type: biochemical; details: IC50 for CoA, assay carried out using unlabelled coenzyme A
T1 construct: NusA; His tag (vector-encoded, inferred from Ni-NTA purification); made in house; host or cells: E. coli BL21 (DE3)
T1 sequence (Q4W9R0 1-153): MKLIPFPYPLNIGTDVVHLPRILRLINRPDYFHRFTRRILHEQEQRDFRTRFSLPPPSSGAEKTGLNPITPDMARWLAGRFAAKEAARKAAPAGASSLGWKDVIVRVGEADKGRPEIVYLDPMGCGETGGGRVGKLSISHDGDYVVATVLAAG
Description: High-throughput fluorescent polarization screens for PPTB inhibitors were carried out in black, flat-bottom 384 well plates using the following equipment: Thermo Labsystems Multidrop 384 machine (Multidrop® 384) with dispensing cassette and plate adapter; Tecan Genesis Freedom and Tecan Te—Mo automated liquid handling robot with 235 μl tip head, plus appropriate PC/base unit/software; PerkinElmer Minitrak automated liquid handling robot with 235 μl tip head plus appropriate PC/base unit/software; and PerkinElmer Fusion-Alpha-FP HT plate reading spectrophotometer plus appropriate FP filters (Excitation filter 540 nm; Emission filter 580 nm, both filters with 20 nm bandwidth).
Buffer A: 62.5 mM Bis-Tris buffer (pH 6.75), 12.5 mM MgCl2. The final concentrations in the assay were 50 mM Bis-Tris and 10 mM MgCl2.
CoA-Bodipy TMR-ACP mix: 11.6 ml ACP (3.421 mg/ml) plus 1854.7 μl CoA-Bodipy TMR stock (see Section 3.2 above) was made up to 529.9 ml with Buffer A at 4° C.
PPTB enzyme: PPTB enzyme was typically used at 50 to 100 ng total protein/well; enzyme was used at a concentration that gave reaction linearity with respect to both time and protein concentration. This had to be determined for each enzyme batch. […]
Assays were carried out in black, flat-bottomed 384-well plates. […] The reaction was terminated by the addition of 25 μl Stop Reagent, after which plates were read in a spectrophotometer. […]

SMILES: O=C(O)CN(CCN(CC(=O)O)CC(=O)O)CC(=O)O [EDTA]
- effect on the labelling reaction of ACP [1]: inhibited

SMILES: CC(C)(COP(=O)(O)OP(=O)(O)OC[C@H]1O[C@@H](n2cnc3c(N)ncnc32)[C@H](O)[C@@H]1OP(=O)(O)O)[C@@H](O)C(=O)NCCC(=O)NCCS [CoA, coenzyme A]
- IC50 ([2]; plates read after 105 hours): 5.9 µM
- IC50 ([2]; plates read on day one): 6.02 µM
